Laboratory results as given in paper PMC6993007, “Protocol for bevacizumab purification using Ac-PHQGQHIGVSK-agarose” (MethodsX, 2019).

Legend:
[1] = system: bevacizumab; conditions: in words, Kd not given; ref [2]; cited from earlier work
Excerpt: Bevacizumab is a monoclonal antibody, produced in CHO cells, used for the treatment of many human cancers. It is an anti-vascular endothelial growth factor (antsi-VEGF) that blocks the growth of tumor blood vessels. Nowadays its purification is achieved by affinity chromatography (AC) using protein A which is a very expensive ligand. […] This short peptide ligand has higher stability and lower cost than protein A and it can be prepared very easily by solid phase peptide synthesis. The ...

[2] = system: bevacizumab; assay: Bevacizumab purification by Ac-PHQGQHIGVSK-agarose affinity chromatography from the CHO cell culture; conditions: in words; mild elution conditions
Procedure: Material • Adsorption buffer: 20 mM sodium phosphate, pH 7.0, 1 M (NH4)2SO4 • A column containing 0.5 mL (0.5 × 2.5 cm) of Ac-PHQGQHIGVSK-agarose • Elution buffer: 20 mM sodium phosphate, pH 7.0 • Absorption UV/VIS spectrophotometer
Procedure • 1 Clarify the CHO cell culture containing bevacizumab by centrifugation or filtration. • 2 Add to the sample the amount of (NH4)2SO4 necessary to achieve a final concentration of 1 M. • 3 Equilibrate the chromatographic column containing Ac-PHQGQHIGVSK-agarose with 20 volumes of adsorption buffer. • 4 Load the column with CHO cell culture filtrate containing bevacizumab. Note: the amount of bevacizumab loaded to the column must be lower than the maximum capacity of the chromatographic matrix synthesized. • 5 Wash the column with adsorption buffer until the absorbance at 280 nm achieves the baseline value. • 6 Elute the bound protein by adding 20 mM sodium phosphate, pH 7.0. • 7 Measure total protein concentration with Bradford reagent using pure bevacizumab as the protein standard. • 8 Measure bevacizumab concentration by HPLC using a protein A analytical column as per Zou et al.. • 9 Perform sodium dodecyl sulfate polyacrylamide gel electrophoresis (SDS-PAGE) (12.5 % under reductive conditions) as described by Laemmli and stain gels with Coomassie Blue following the standard procedure.

## Ac-PHQGQHIGVSK-NH2
[1]
  affinity for bevacizumab: binds bevacizumab with high affinity

## bevacizumab: anti-vascular endothelial growth factor (anti-VEGF) monoclonal antibody, produced in CHO cells
[2]
  integrity of bevacizumab (mAb): preserve the integrity
